Measurements from patent publication US20040038855A1 (priority 1999, published 2004).

Legend:
[1] = tested on: micturition reflex, anesthetized female Sprague Dawley rats; assay: Distension-induced rhythmic contraction (DIRC) model; format: in vivo, rat; parameters: key: A = Produced a significant increase in contraction interval relative to pre-drug interval; conditions: contraction interval, i.v. or i.p.
Experimental: The effects of compounds on the micturition reflex were assessed in the “distension-induced rhythmic contraction” (DIRC), as described in previous publications (e.g. Maggi et al, 1987; Morikawa et al, 1992), and Continuous Slow Transvesicular Infusion (CSTI) models in rats.
Female Sprague Dawley rats weighing approximately 300 g were anesthetized with subcutaneous urethane (1.2 g/kg). The trachea was cannulated with PE240 tubing to provide a clear airway throughout the experiment. A midline abdominal incision was made and the left and right ureters were isolated. The ureters were ligated distally (to prevent escape of fluids from the bladder) and cannulated proximally with PE10 tubing. The incision was closed using 4-0 silk sutures, leaving the PE10 lines routed to the exterior for the elimination of urine. The bladder was canulated via the transurethral route using PE50 tubing inserted 2.5 cm beyond the urethral opening. This cannula was secured to the tail using tape and connected to a pressure transducer. To prevent leakage from the bladder, the cannula was tied tightly to the exterior urethral opening using 4-0 silk.
To initiate the micturition reflex, the bladder was first emptied by applying pressure to the lower abdomen, and then filled with normal saline in […] (maximum 2 ml) until spontaneous bladder contractions occurred (typically 20-40 mmHg at a rate of one contraction every 2 to 3 minutes. Once a regular rhythm was established, vehicle (saline) or Test Compounds were administered i.v. or i.p. to explore their effects on bladder activity. The 5-HT1A antagonist WAY-100635 was given as a positive control. Data were expressed as contraction interval (in seconds) before drug application (basal), or after the application of vehicle or test article.

[2] = tested on: micturition reflex, conscious male Sprague Dawley rats; assay: Continuous Slow Transvesicular Infusion (CSTI) rat model; format: in vivo; parameters: key to Effect of MCH1 antagonist in the CSTI model: B = Produced an increase in bladder capacity in rats relative to baseline capacity
Experimental: The effects of compounds on the micturition reflex were assessed in the “distension-induced rhythmic contraction” (DIRC), as described in previous publications (e.g. Maggi et al, 1987; Morikawa et al, 1992), and Continuous Slow Transvesicular Infusion (CSTI) models in rats. Male Sprague Dawley rats weighing approximately 300 g were used for the study. Rats were anaesthetized with pentobarbitone sodium (50 mg/kg, i.p). Through a median abdominal incision, bladder was exposed and a polyethylene cannula (PE 50) was introduced into the bladder through a small cut on the dome of the bladder and the cannula was secured with a purse string suture. The other end of the cannula was exteriorized subcutaneously at the dorsal neck area. Similarly, another cannula (PE 50) was introduced into the stomach through a paramedian abdominal incision with the free end exteriorized subcutaneously to the neck region. The surgical wounds were closed with silk 4-0 suture and the animal was allowed to recover with appropriate post surgical care. On the following day, the animal was placed in a rat restrainer. The open end of the bladder cannula was connected to a pressure transducer as well as infusion pump through a three-way stopcock. The bladder voiding cycles were initiated by continuous infusion of normal saline at the rate of 100 ul/min. The repetitive voiding contractions were recorded on a Power Lab on-line data acquisition software. After recording the basal voiding pattern for an hour, the test drug or vehicle was administered directly into stomach through the intragastric catheter and the voiding cycles were monitored for 5 hours. Micturition pressure and frequency were calculated before and after the treatment (at every 30 min interval) for each animal. Bladder capacity was calculated from the micturition frequency, based on the constant infusion of 100 ul/min. The effect of the test drug was expressed as a percentage of basal, pre-drug bladder capacity. WAY 100635 was used as positive control for comparison.

[3] = molecular target: T1, human MCH1 receptor (Homo sapiens, UniProt Q99705); assay: Saturation and competition binding of [3H]Compound 10, membranes of Cos-7 cells transfected with MCH1; parameters: expressed in transfected cells; host or cells: COS-7; conditions: 0.4 nM [3H]Compound 10; read-out: IC50, displacement of specific [3H]Compound 10 binding
Experimental: Saturation equilibrium binding of [3H]Compound 10 to the human MCH1 receptor. Membrane preparations from Cos-7 cells transfected with MCH1 were incubated with varying concentrations of [3H]Compound 10 (SA: 56 Ci/mmol) at room temperature for 90 min, in a volume of 0.250 ml. The reaction was terminated by filtration in GF/C filters, and the radioactivity determined by scintillation counting. Non-specific binding was defined as the amount of radioactivity retained in the filter after incubating the reaction mixture in the presence of unlabeled Compound 10 ([…]).
Competition binding of [3H]Compound 10 to the human MCH1 receptor. […] The reaction was terminated by filtration in GF/C filters and the radioactivity bound to the membrane was determined by scintillation counting.
[3H]Compound 10 was tested for its ability to bind to membrane preparations of cells expressing the human MCH1 receptor.

[4] = molecular target: T1, human MCH1 receptor; format: cell-based; parameters: expressed in transfected cells; host or cells: COS-7; conditions: linear regression, r^2=0.94
Experimental: Guidelines for cell preparation and assay of the second messenger inositol phosphate (IP) are described below for a typical protocol involving transiently transfected Cos-7 cells; For a 96 well microplate format assay, cells are plated at 70,000 cells per well and allowed to incubate for 24 hours after the transfection procedure. The cells are then labeled with 0.5 μCi [^3H]myo-inositol per micro-well over night at 37° C., 5% CO2. Immediately before the assay, the medium is removed and replaced with 90 μl PBS containing 10 mM LiCl. The plates are then incubated for 15 minutes at 37° C., […]. Following the incubation, the transfectants are challenged with agonist (10 μl/well; 10× concentration) for 30 minutes at 37° C., 5% CO2. The challenge is terminated and the cells lysed by the addition of 100 μl cold 5% v/v trichloroacetic acid (TCA), followed by an incubation at 4° C. for greater than 30 minutes. Total IPs are isolated from the lysate by ion exchange chromatography. Briefly, the lysed contents of the wells are transferred to a Multiscreen HV filter plate (Millipore) containing 100 μl Dowex AG1-X8 suspension (50% v/v, water:resin) (200-400 mesh, formate form). The filter plates are placed on a vacuum manifold to wash and elute the resin bed. Each well is first washed 2 times with 200 μl 5 mM myoinositol. Total [^3H]IPs are eluted with 75 μl of 1.2 M ammonium formate/0.1 M formic acid into Wallac 96-well plates. 200 μl of SuperMix scintillation cocktail is added to each well, mixed well, allowed to equilibrate and counted on a Micro Beta Trilux scintillation counter. (Note: The assay may be scaled to a 24 well format by simple adjustment of reagent volumes and employing individual chromatographic columns.)
The expression vector (pEXJ) containing the MCH1 cDNA was transfected by electroporation into Cos-7 cells in combination with an expression vector (pEXJ) containing the Gα16 subunit.

T1 sequence (Q99705 whole entry): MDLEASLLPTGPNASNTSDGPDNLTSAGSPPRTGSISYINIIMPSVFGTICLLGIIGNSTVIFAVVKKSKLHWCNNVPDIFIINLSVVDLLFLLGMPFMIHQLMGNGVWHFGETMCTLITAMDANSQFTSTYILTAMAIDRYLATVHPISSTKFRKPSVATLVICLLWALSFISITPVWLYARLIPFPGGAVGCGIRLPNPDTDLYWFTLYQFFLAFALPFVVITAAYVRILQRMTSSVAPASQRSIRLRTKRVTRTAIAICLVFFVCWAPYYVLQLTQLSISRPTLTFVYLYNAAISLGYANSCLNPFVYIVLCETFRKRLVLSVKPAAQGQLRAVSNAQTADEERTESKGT

Compound: COCC1=C(C(=O)OC)[C@H](c2ccc(F)c(F)c2)N(C(=O)NCCCN2CCC(c3cccc(NC(C)=O)c3)CC2)C(=O)N1 [Example 10, (+)-1,2,3,6-TETRAHYDRO-1-{N-[4-(3,-ACETAMIDO)-PHENYLPIPERIDIN-1-YL]PROPYL}CARBOXAMIDO-4-METHOXYMETHYL-6-(3,4-DIFLUORO-PHENYL)-2-OXOPYRIMIDINE-5-CARBOXYLIC ACID METHYL ESTER]
- Effect of MCH1 antagonist in the DIRC model [1]: A
- bladder capacity (% basal) ([2]; 0.03 mg/kg, p.o., n=6 each, p<0.05): Significantly different from corresponding vehicle control
- Effect of MCH1 antagonist in the CSTI model ([2]; bladder capacity, intragastric): B
- IC50 [3]: 330 pM
- slope of the Schild plot [4]: 0.97±0.2
